# From publication PMC5278714, “Safety and Pharmacokinetics of CD101 IV, a Novel Echinocandin, in Healthy Adults” (Antimicrobial Agents and Chemotherapy, 2017)
# Read-outs that look alike come from different tables or passages of the source. Numbered stars: 1 amine (or outer) side, 2 acyl side, 3 side chain; on linkers, the order of the positions; unused ones are H or OH. Bridge positions count the residues as written; N and C are the ends. Square brackets hold non-standard residues; d marks the D form. Peptide text beside a SMILES is read from it. * marks the point of attachment. Orn(4R-OH,5R-OCH2CH2NMe3+) = C[N+](C)(C)CCO[C@@H](N[*:3])[C@H](O)C[C@H](N[*:1])C(=O)[*:2]; pTerphenylCO(4''-OnC5H11) = CCCCCOc1ccc(-c2ccc(-c3ccc(C(=O)*)cc3)cc2)cc1; hTyr(3S-OH,4S-OH) = N[C@H](C(=O)O)[C@H](O)[C@@H](O)c1ccc(O)cc1; Pro(3S-OH,4S-Me) = C[C@H]1CN[C@H](C(=O)O)[C@H]1O; Hyp = O=C(O)[C@@H]1C[C@@H](O)CN1
# Assays:
# Format in all cases: in vivo, humans
# [1] = Single-ascending-dose phase 1 study: plasma and urine pharmacokinetics; conditions: for Vd / clearance / half-life / Cmax: plasma, arithmetic mean; for Vd: iv; for Cmax: LC-MS/MS
# Protocol: (§1) The single-ascending-dose and multiple-ascending-dose studies were phase 1, randomized, double-blind, dose-escalation, placebo-controlled, single-center safety trials of CD101 IV in healthy adults (ClinicalTrials.gov identifiers: NCT02516904 for the single-ascending-dose study; NCT02551549 for the multiple-ascending-dose study). In the single-ascending-dose study, 4 cohorts (corresponding to doses of 50, 100, 200, and 400 mg) of 8 subjects (6 active and 2 placebo) received CD101 IV or placebo infused over 60 (±5) min. In the multiple-ascending-dose study, 3 cohorts (cohort 1, 100 mg ×2 doses; cohort 2, 200 mg ×2 doses; cohort 3, 400 mg ×3 doses) of 8 subjects (6 active and 2 placebo) received CD101 IV or placebo (normal saline solution) infused over 60 (±5) min, with doses separated by 7 days.
# (§2) Extensive PK sampling from plasma and urine was performed for all subjects following study drug administration and over the 3 weeks after the last dose of study drug. Plasma and urine samples from subjects who received CD101 IV were analyzed by a bioanalytical laboratory for CD101 concentration using a validated liquid chromatography-tandem mass spectrometry method with a lower limit of quantitation of 10 ng/ml.
# (§3) Pharmacokinetics were assessed in the PK analysis population and included Cmax, AUC, Cl, elimination rate constant (λz), and terminal t1/2. Plasma concentration-time profiles were constructed for each subject and dosing cohort. For each plasma concentration-time curve, PK parameters were determined directly from inspection of the data or calculated using noncompartmental methods with validated PK software (Phoenix WinNonlin, Version 6.3). Urine concentration data were used to determine renal excretion and drug recovery rates. The number of subjects was selected to allow sufficient evaluation of safety, tolerability, and PK and was consistent with phase 1 standards of practice ([44]).
# healthy adults [2] = assay: Single-ascending-dose phase 1 study: safety and tolerability
# Protocol: as §1
# (§4) All subjects were monitored for AEs throughout the study until 21 days after the last dose of study drug. Electrocardiograms, hematology and serum chemistry evaluations, and UA were performed at screening, on day −1, and at various time points during and for 14 days after the dosing period. Subjects remained in the clinical research unit for observation and safety assessments from day −1 until 7 days after the last dose of study drug. Three additional safety assessments were performed at weekly follow-up visits following the last dose of study drug. The long follow-up period ensured that any delayed safety events were captured, since CD101 has a very long t1/2 and plasma levels are expected to persist for several weeks. Safety was assessed ≥5 days after dosing by study physicians to determine whether it was safe to proceed to the next dose.
# (§5) Safety was assessed in the safety analysis population. Safety was evaluated by presenting summaries of AEs, ECGs, clinical laboratory evaluations (hematology evaluation, chemistry panel, and UA), and vital signs. Adverse events were coded using the Medical Dictionary for Regulatory Activities Version 18.0. A TEAE was an AE that occurred during or after study drug administration and up through 21 (±1) days after study drug administration. The incidence of TEAEs was summarized by system organ class and preferred term, by relationship to study drug, and by severity. In addition, the incidence of serious TEAEs and the incidence of TEAEs leading to discontinuation of study drug were summarized by system organ class and preferred term. Descriptive statistics for clinical laboratory test results and vital signs, and for changes from baseline, were summarized by time point. Incidences of potentially clinically significant clinical laboratory results and vital signs were also summarized by time point. The numbers and percentages of abnormal ECGs were summarized by time point.
# healthy adults [3] = assay: Multiple-ascending-dose phase 1 study: safety and tolerability
# Protocol: as §1, §4, §5
# [4] = Multiple-ascending-dose phase 1 study: plasma and urine pharmacokinetics; conditions: for Vd / clearance / half-life / level at 144 h: plasma; for Vd / clearance / half-life / level at 144 h / dose excreted: iv; for level at 144 h: read-out: trough concentration on day 7 (144 h postdose); for dose excreted: urine
# Protocol: as §1, §2, §3
# [5] = human, single 50 mg IV infusion over 1 h
# [6] = human, single 100 mg IV infusion over 1 h
# [7] = human, single 200 mg IV infusion over 1 h
# [8] = human, single 400 mg IV infusion over 1 h
# [9] = human, 100 mg, 100 mg IV once weekly x2, day 1, sampling interval 144 h, arithmetic mean
# [10] = human, 100 mg, 100 mg IV once weekly x2, day 8, sampling interval 480 h, arithmetic mean
# [11] = human, 200 mg, 200 mg IV once weekly x2, day 1, sampling interval 144 h, arithmetic mean
# [12] = human, 200 mg, 200 mg IV once weekly x2, day 8, sampling interval 480 h, arithmetic mean
# [13] = human, 400 mg, 400 mg IV once weekly x3, day 1, sampling interval 144 h, arithmetic mean
# [14] = human, 400 mg, 400 mg IV once weekly x3, day 15, sampling interval 480 h, arithmetic mean
# [15] = single and multiple doses, all dose levels
compound,measurement,setting,value
"CCCCCOc1ccc(-c2ccc(-c3ccc(C(=O)N[C@H]4C[C@@H](O)[C@@H](OCC[N+](C)(C)C)NC(=O)[C@@H]5[C@@H](O)[C@@H](C)CN5C(=O)[C@H]([C@@H](C)O)NC(=O)[C@H]([C@H](O)[C@@H](O)c5ccc(O)cc5)NC(=O)[C@@H]5C[C@@H](O)CN5C(=O)[C@H]([C@@H](C)O)NC4=O)cc3)cc2)cc1 [CD101] ({pTerphenylCO(4''-OnC5H11)}-[Orn(4R-OH,5R-OCH2CH2NMe3+)]T[Hyp][hTyr(3S-OH,4S-OH)]T[Pro(3S-OH,4S-Me)]; lactam 1-C)",Vd,"[1]; human, 50 mg, single 50 mg IV infusion over 1 h, read-out: Vss (volume of distribution at steady state)",36 L
same,Vd,"[1]; human, 50 mg, single 50 mg IV infusion over 1 h, read-out: Vz (apparent volume of distribution during terminal phase)",43.2 L
same,Vd,"[1]; human, 100 mg, single 100 mg IV infusion over 1 h, read-out: Vss (volume of distribution at steady state)",42.9 L
same,Vd,"[1]; human, 100 mg, single 100 mg IV infusion over 1 h, read-out: Vz (apparent volume of distribution during terminal phase)",50.6 L
same,Vd,"[1]; human, 200 mg, single 200 mg IV infusion over 1 h, read-out: Vss (volume of distribution at steady state)",34.4 L
same,Vd,"[1]; human, 200 mg, single 200 mg IV infusion over 1 h, read-out: Vz (apparent volume of distribution during terminal phase)",39.7 L
same,Vd,"[1]; human, 400 mg, single 400 mg IV infusion over 1 h, read-out: Vss (volume of distribution at steady state)",35.9 L
same,Vd,"[1]; human, 400 mg, single 400 mg IV infusion over 1 h, read-out: Vz (apparent volume of distribution during terminal phase)",41.6 L
same,clearance,[1]; [5],3.75 mL/min
same,half-life,[1]; [5],5.54 days
same,Cmax,"[1]; human, single 100 mg IV infusion over 1 h, read-out: Cmax",4860 ng/mL
same,clearance,[1]; [6],4 mL/min
same,half-life,[1]; [6],6.08 days
same,clearance,[1]; [7],3.65 mL/min
same,half-life,[1]; [7],5.21 days
same,clearance,[1]; [8],3.77 mL/min
same,half-life,[1]; [8],5.38 days
same,Cmax,[1]; single 400 mg IV infusion over 1 h,22700 ng/mL
same,mean half-life (t1/2) through the first week (up to day 7) of plasma sampling,[1]; single 50 to 400 mg IV doses,> 80 h
same,"SAEs, severe AEs, withdrawals due to an AE, deaths","healthy adults [2]; both studies, all dose levels","no serious adverse events (SAEs), severe adverse events (AEs), withdrawals due to an AE, or deaths"
same,"laboratory abnormalities, vital signs, ECG","healthy adults [2]; both studies, all dose levels",no clinically meaningful trends in postbaseline laboratory abnormalities
same,overall safety and tolerability,"healthy adults [2]; both studies, single dose up to 400 mg, multiple doses up to 400 mg once weekly for 3 weeks",safe and well tolerated at all dose levels tested
same,subjects with gastrointestinal disorders (system organ class),healthy adults [2]; cohort 1 (single 50 mg),2 [33%] subjects [%]
same,subjects with musculoskeletal and connective tissue disorders,healthy adults [2]; cohort 1 (single 50 mg),2 [33%] subjects [%]
same,subjects with gastrointestinal disorders (system organ class),healthy adults [2]; cohort 3 (single 200 mg),2 [33%] subjects [%]
same,subjects with general disorders and administration site conditions,healthy adults [2]; cohort 3 (single 200 mg),2 [33%] subjects [%]
same,subjects with musculoskeletal and connective tissue disorders,healthy adults [2]; cohort 3 (single 200 mg),2 subjects
same,subjects with moderate TEAEs,"healthy adults [2]; cohort 3 (single 200 mg), ear pain",1 subject
same,subjects with musculoskeletal and connective tissue disorders,healthy adults [2]; cohort 4 (single 400 mg),1 subject
same,subjects with moderate TEAEs,"healthy adults [2]; cohort 4 (single 400 mg), headache",1 subject
same,"subjects with mild, transient infusion reactions (flushing, feeling hot, nausea, chest tightness)","healthy adults [3]; all CD101 cohorts, primarily cohort 3, most common with third dose",Four
same,subjects with TEAEs related to study drug,healthy adults [3]; cohort 1 (100 mg x2 weeks),1 subject
same,subjects with TEAEs related to study drug,healthy adults [3]; cohort 2 (200 mg x2 weeks),1 subject
same,subjects with moderate TEAEs,"healthy adults [3]; cohort 2 (200 mg x2 weeks), arthropod bite and pruritus",1 subject
same,subjects with TEAEs related to study drug,healthy adults [3]; cohort 3 (400 mg x3 weeks),4 subjects
same,subjects with gastrointestinal disorders (system organ class),healthy adults [3]; cohort 3 (400 mg x3 weeks),4 [67%] subjects [%]
same,subjects with vascular disorders (system organ class),healthy adults [3]; cohort 3 (400 mg x3 weeks),3 [50%] subjects [%]
same,subjects with moderate TEAEs,"healthy adults [3]; cohort 3 (400 mg x3 weeks), constipation and myalgia",2 subjects
same,Vss,"[4]; 100 mg IV once weekly x2, day 8, arithmetic mean",29.3 L
same,cumulative amount excreted in urine,"[4]; cohort 1 (100 mg x2), day 1",52.0 µg
same,mean renal clearance,"[4]; cohort 1 (100 mg x2), day 1",0.1877 mL/h
same,cumulative amount excreted in urine,"[4]; cohort 1 (100 mg x2), day 8",151.4 µg
same,cumulative amount excreted in urine,"[4]; cohort 2 (200 mg x2), day 1",145.0 µg
same,cumulative amount excreted in urine,"[4]; cohort 2 (200 mg x2), day 8",400.7 µg
same,cumulative amount excreted in urine,"[4]; cohort 3 (400 mg x3), day 1",330.6 µg
same,cumulative amount excreted in urine,"[4]; cohort 3 (400 mg x3), day 15",987.5 µg
same,mean renal clearance,"[4]; cohort 3 (400 mg x3), day 15",0.5965 mL/h
same,"cumulative amount excreted in urine, times higher than on day 1",[4]; days 8 and 15 vs day 1,approximately 3 times
same,t1/2,[4]; following the first dose,approximately 80 h
same,Vd,"[4]; human, 100 mg, 100 mg IV once weekly x2, day 1, arithmetic mean, read-out: Vss",28.8 L
same,Vd,"[4]; human, 100 mg, 100 mg IV once weekly x2, day 1, arithmetic mean, read-out: Vz",29.5 L
same,clearance,[4]; [9],4.3 mL/min
same,half-life,[4]; [9],3.3 days
same,Vd,"[4]; human, 100 mg, 100 mg IV once weekly x2, day 8, arithmetic mean, read-out: Vz",33.8 L
same,clearance,[4]; [10],2.48 mL/min
same,half-life,[4]; [10],6.58 days
same,Vd,"[4]; human, 200 mg, 200 mg IV once weekly x2, day 1, arithmetic mean, read-out: Vss",31.7 L
same,Vd,"[4]; human, 200 mg, 200 mg IV once weekly x2, day 1, arithmetic mean, read-out: Vz",32.8 L
same,clearance,[4]; [11],4.65 mL/min
same,half-life,[4]; [11],3.39 days
same,Vd,"[4]; human, 200 mg, 200 mg IV once weekly x2, day 8, arithmetic mean, read-out: Vss",28.5 L
same,Vd,"[4]; human, 200 mg, 200 mg IV once weekly x2, day 8, arithmetic mean, read-out: Vz",30.9 L
same,clearance,[4]; [12],2.58 mL/min
same,half-life,[4]; [12],5.83 days
same,Vd,"[4]; human, 400 mg, 400 mg IV once weekly x3, day 1, arithmetic mean, read-out: Vss",29.6 L
same,Vd,"[4]; human, 400 mg, 400 mg IV once weekly x3, day 1, arithmetic mean, read-out: Vz",31.2 L
same,clearance,[4]; [13],4.47 mL/min
same,half-life,[4]; [13],3.38 days
same,Vd,"[4]; human, 400 mg, 400 mg IV once weekly x3, day 15, arithmetic mean, read-out: Vss",25.4 L
same,Vd,"[4]; human, 400 mg, 400 mg IV once weekly x3, day 15, arithmetic mean, read-out: Vz",27.9 L
same,clearance,[4]; [14],2.1 mL/min
same,half-life,[4]; [14],6.33 days
same,level at 144 h,"[4]; human, 400 mg, following the first dose",~4000 ng/mL
same,level at 144 h,"[4]; human, 400 mg, following the third (last) dose",~7000 ng/mL
same,half-life,"[4]; human, following the second or third dose",~6.25 days
same,dose excreted,"[4]; human, all dose levels, both studies, read-out: fraction of dose excreted",< 1%
same,dose excreted,"[4]; human, LC-MS/MS, read-out: amount of CD101 excreted in urine",≤ 0.26%
same,AUC(0-t),"[4]; human, 200 mg IV once weekly x2, day 1, plasma, arithmetic mean, read-out: AUC0–168",570 µg·h/mL
same,Cmax,"[4]; human, 400 mg IV once weekly x3, day 1, plasma, arithmetic mean",22700 ng/mL
same,apparent clearance,[4]; [15],< 0.28 L/h
same,half-life (t1/2),[4]; [15],> 80 h
